US6534035B1, “Methods of inhibiting clot formation” (President and Fellows of Harvard College, priority 1998, dated 2003)
Peptide text beside a SMILES is read from it. * marks the point of attachment. Biotin = O=C1N[C@H]2[C@H](CS[C@H]2CCCCC(=O)*)N1

Experiments:
Assay type in all cases: biochemical
[1] = molecular target: T1, factor XIIIa-mediated crosslinking of α2AP to fibrin (Homo sapiens, UniProt P00488); assay: Inhibition of α2AP-fibrin crosslinking in plasma clots by α2AP polypeptide (immunoblot)
T1 construct: from tissue; host or cells: human plasma clotted with thrombin and calcium
T1 sequence (P00488 39-732 limits assumed): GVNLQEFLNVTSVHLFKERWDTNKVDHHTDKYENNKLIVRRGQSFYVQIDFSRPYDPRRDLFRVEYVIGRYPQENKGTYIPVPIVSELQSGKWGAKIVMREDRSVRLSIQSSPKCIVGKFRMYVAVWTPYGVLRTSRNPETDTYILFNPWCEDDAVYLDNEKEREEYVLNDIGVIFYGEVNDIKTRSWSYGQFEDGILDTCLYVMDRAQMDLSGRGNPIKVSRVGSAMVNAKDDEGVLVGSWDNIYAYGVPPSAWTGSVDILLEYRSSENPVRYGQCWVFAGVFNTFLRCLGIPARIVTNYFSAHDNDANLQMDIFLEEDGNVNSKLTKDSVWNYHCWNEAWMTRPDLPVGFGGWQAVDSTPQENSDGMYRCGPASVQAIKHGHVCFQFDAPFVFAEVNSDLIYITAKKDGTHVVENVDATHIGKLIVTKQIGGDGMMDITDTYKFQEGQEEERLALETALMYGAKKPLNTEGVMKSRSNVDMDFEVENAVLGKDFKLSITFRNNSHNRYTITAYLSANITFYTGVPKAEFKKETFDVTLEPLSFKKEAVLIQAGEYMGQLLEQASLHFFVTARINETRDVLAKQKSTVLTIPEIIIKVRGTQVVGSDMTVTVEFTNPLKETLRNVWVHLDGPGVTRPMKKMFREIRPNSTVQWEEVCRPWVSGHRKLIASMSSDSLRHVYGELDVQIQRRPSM
Experimental: To inhibit the crosslinking of α2AP to fibrin, a polypeptide spanning the crosslinking site on the amino terminus of α2AP (SEQ ID NO:2) was synthesized. The purity of the polypeptide was analyzed by high performance liquid chromatography, and its composition was verified by amino acid analysis on a Waters Picotag system. The α2AP polypeptide was then solubilized in 20 mM Tris-HCl and the pH was adjusted to 7.0. Various concentrations of polypeptide (7.5 μl, 0-5 mM final) were mixed with 20 μl of plasma, 1.25 μl of calcium chloride (0.4 mM), and 1.25 μof thrombin (10.0 units/ml) and clotted for 90 minutes at 37° C. as described above. The clots were solubilized and analyzed by immunoblotting as described above.

[2] = molecular target: T2, FXIIIa (Homo sapiens, UniProt P00488); assay: FXIIIa catalytic half-life: crosslinking of substrates into fibrin clots of various ages; details: substrate added to 2 or 4 hour old clots
T2 construct: purchased American Diagnostica
T2 sequence (P00488 39-732 limits assumed): T1 sequence (P00488 39-732 limits assumed)
Experimental: (§1) Experiments were performed to determine how long FXIIIa in clots could crosslink various substrates such as human ^125I -α2AP, α2AP13-24 (SEQ ID NO:2), and 5-(biotinamido)pentylamine, into fibrin. In a typical experiment, clots were prepared (50 μl final volume) in duplicate by combining fibrinogen (2 mg/ml final), CaCl2 (2 mM final), buffer (Tris-buffered saline pH 7.4) and thrombin (1 U/ml) and incubating at 37° C. Synchronous with the addition of thrombin, or up to 240 minutes afterwards, the FXIIIa substrates 5-(biotinamido)pentylamine (0.5 mM final), ^125I -α2AP (70 μg/ml final), and α2AP13-24 (0 to 1 mM final) were mixed and added to the clot. In one set of control samples, FXIIIa was inhibited with iodoacetamide (10 mg/ml) prior to the addition of substrate; to another set, no substrate was added. After 2 hours of incubation at 37° C., iodoacetamide (10 mg/ml) was added to stop the reaction. The tubes were then centrifuged at 14,000 rpm for 2 minutes, washed and compressed in 1 ml saline to remove unbound proteins, and centrifuged again at 14,000 rpm for 2 minutes. After removal of the supernatant, the clots were solubilized in 100 μL of 9M urea, pH 9.0 at 37° C. for 60 minutes. Then 100 μl of SDS reducing sample buffer was added and the clots were placed at 85° C. for 30 minutes until fully solubilized. The samples were examined by SDS-PAGE. Crosslinked ^125I-α2AP was detected and quantitated by phosphorimaging. Samples containing crosslinked α2AP13-24 and pentylamine substrates were electroblotted to PVDF membranes and detected by ^125I-streptavidin followed by phosphorimaging or by streptavidin-peroxidase followed by the developing agents 5-bromo-4-chloro-3-indolyl phosphate-nitro blue tetrazolium using methods known in the art. In experiments examining the effect of specific amino acid residues on the crosslinking of the α2AP13-24 peptide (SEQ ID NO:2) to fibrin, crosslinking was detected by immunoblotting with an anti-peptide antibody directed against this epitope followed by ^125I-protein A and phosphorimaging. […]

[3] = molecular target: T2, FXIIIa; assay: Dose-dependent crosslinking of α2AP13-24 into fibrin clots; details: fibrin clots, compared to control clots
Experimental: as §1, with “In one set of control samples, FXIIIa was inhibited with iodoacetamide (10 mg/ml) prior to the addition of substrate; to another set, no substrate was added. After 2 hours of incubation at 37° C., iodoacetamide (10 mg/ml) was added to stop the reaction. The tubes were then centrifuged at 14,000 rpm for 2 minutes, washed and compressed in 1 ml saline to remove unbound proteins, and centrifuged again at 14,000 rpm for 2 minutes. After removal of the supernatant, the clots were solubilized in 100 μL of 9M urea, pH 9.0 at 37° C. for 60 minutes. Then 100 μl of SDS reducing sample buffer was added and the clots were placed at 85° C. for 30 minutes until fully solubilized. The samples were examined by SDS-PAGE.” left out

[4] = molecular target: T3, human plasma FXIII (Homo sapiens, UniProt P00488); assay: Crosslinking of α2AP13-24 into fibrin by plasma FXIII in FXIII-free fibrinogen
T3 construct: purchased American Diagnostica; host or cells: purified from human plasma
T3 sequence (P00488 39-732 limits assumed): T1 sequence (P00488 39-732 limits assumed)
Experimental: Fibrin clots (50 μl) were prepared in duplicate by mixing FXIII-free fibrinogen (2 mg/ml final), α2AP13-24 (SEQ ID NO:2; 0.5 mM final), CaCl2 (2 mM final), human plasma FXIII (100 nM/L final) and guinea pig tissue transglutaminase (100 nM/L final) and thrombin (1 U/ml final) and incubating at 37° C. for 2 hours. The crosslinking of α2AP13-24 was detected as described above.

CC(C)C[C@H](NC(=O)[C@H](CC(C)C)NC(=O)[C@@H](NC(=O)[C@H](CC(C)C)NC(=O)[C@@H]1CCCN1C(=O)[C@H](CO)NC(=O)[C@@H](NC(=O)[C@H](CCC(N)=O)NC(=O)[C@H](CCC(=O)O)NC(=O)[C@H](CCC(N)=O)NC(=O)[C@@H](N)CC(N)=O)C(C)C)[C@@H](C)O)C(=O)N[C@@H](CCCCNC(=O)CCCC[C@@H]1SC[C@@H]2NC(=O)N[C@@H]21)C(=O)O [α2AP13-24, NQEQVSPLTLLK] (H-NQEQVSPLTLLK(Biotin)-OH)
α2AP-fibrin crosslinking ([1]; peptide concentrations of 1.5 mM and 3.0 mM): little α2AP crosslinking was visible
formation of fibrin γ-γ crosslinks ([1]; plasma clots formed with α2AP polypeptide): no apparent effect
peptide concentration giving progressively less α2AP-fibrin crosslinking ([1]; plasma clots, 90 minutes at 37° C.): ≥ 0.38 mM
residual FXIIIa crosslinking of substrate [2]: little residual FXIIIa crosslinking
lowest concentration at which crosslinking is seen [3]: 1.3 µM
crosslinking of peptide to fibrin ([4]; equivalent amount of purified exogenous FXIIIa added to FXIIIa-deficient fibrinogen): significantly more crosslinking
crosslinking of peptide to fibrin ([4]; purified FXIIIa-deficient fibrinogen, no enzyme added): little, if any, significant crosslinking
